Measurements reported in the NIST ThermoML archive (doi:10.1016/j.jct.2018.08.005).
± gives the expanded uncertainty stated by the source.

Assay: xn = mol fraction of the nth substance listed
Conditions: Liquid; for mass density: Vibrating tube method; for speed of sound: Frequency=3 MHz, Pulse-echo method

CCOC(F)(C(F)(F)C(F)(F)C(F)(F)F)C(F)(C(F)(F)F)C(F)(F)F (stereo not given) [2-trifluoromethyl-3-ethoxydodecafluorohexane] + CC(C)OC(C)C
Conditions | mass density, x1 = 0.25 [kg/m3] | mass density, x1 = 0.375 [kg/m3] | mass density, x1 = 0.5 [kg/m3] | mass density, x1 = 0.625 [kg/m3] | mass density, x1 = 0.75 [kg/m3] | speed of sound, x1 = 0.25 [m/s] | speed of sound, x1 = 0.375 [m/s] | speed of sound, x1 = 0.5 [m/s] | speed of sound, x1 = 0.625 [m/s] | speed of sound, x1 = 0.75 [m/s]
313.15 K, 50000 kPa | – | – | – | 1451.1 ± 1.3 | 1541 ± 1.5 | – | – | – | – | –
313.15 K, 60000 kPa | 1111.4 ± 0.8 | 1244.1 ± 1 | 1360.5 ± 1.2 | 1464.9 ± 1.5 | 1555.4 ± 1.7 | 1065.1 ± 2.2 | 1009.2 ± 2.2 | 967.9 ± 2.2 | 946.8 ± 2.2 | 921.7 ± 2.2
313.15 K, 70000 kPa | 1121.5 ± 0.9 | 1255 ± 1.1 | 1372.6 ± 1.4 | 1477.7 ± 1.7 | 1568.7 ± 2 | – | – | – | – | –
313.15 K, 80000 kPa | 1130.9 ± 0.9 | 1265.4 ± 1.2 | 1383.8 ± 1.5 | 1489.6 ± 1.9 | 1581.1 ± 2.2 | 1141.4 ± 2.2 | 1082.8 ± 2.2 | 1039.3 ± 2.2 | 1017.4 ± 2.2 | 990.1 ± 2.2
313.15 K, 90000 kPa | 1139.7 ± 1 | 1275.3 ± 1.3 | 1394.3 ± 1.7 | 1500.7 ± 2.1 | 1592.6 ± 2.5 | – | – | – | – | –
313.15 K, 100000 kPa | 1148 ± 1 | 1284.4 ± 1.4 | 1404.2 ± 1.9 | 1511.1 ± 2.4 | 1603.5 ± 2.8 | 1209.6 ± 2.2 | 1148.8 ± 2.2 | 1102.9 ± 2.2 | 1079.9 ± 2.2 | 1050.9 ± 2.2
313.15 K, 110000 kPa | 1156 ± 1.1 | 1293.2 ± 1.6 | 1413.7 ± 2.1 | 1521.2 ± 2.6 | 1614 ± 3 | – | – | – | – | –
313.15 K, 120000 kPa | 1163.3 ± 1.1 | 1301.3 ± 1.7 | 1422.4 ± 2.3 | 1530.6 ± 2.9 | 1623.6 ± 3.3 | – | – | – | – | –
313.15 K, 130000 kPa | 1170.4 ± 1.2 | 1309.4 ± 1.9 | 1431 ± 2.5 | 1539.5 ± 3.1 | 1633 ± 3.6 | – | – | – | – | –
313.15 K, 140000 kPa | 1177.2 ± 1.3 | 1316.8 ± 2 | 1439 ± 2.7 | 1548.1 ± 3.4 | 1641.9 ± 3.9 | – | – | – | – | –
323.15 K, 100 kPa | 1006.7 ± 0.8 | 1127.2 ± 0.8 | 1235 ± 0.8 | 1332.2 ± 0.8 | 1418.1 ± 0.8 | 693.3 ± 2.2 | 650 ± 2.2 | 624.3 ± 2.2 | 609.9 ± 2.2 | 597.4 ± 2.2
323.15 K, 10000 kPa | 1029 ± 0.8 | 1152.3 ± 0.8 | 1262 ± 0.8 | 1360.8 ± 0.8 | 1447.4 ± 0.8 | – | – | – | – | –
323.15 K, 20000 kPa | 1047.5 ± 0.8 | 1173 ± 0.8 | 1284.2 ± 0.8 | 1384.2 ± 0.9 | 1471.7 ± 0.9 | 841.6 ± 2.2 | 794.7 ± 2.2 | 761.3 ± 2.2 | 745.2 ± 2.2 | 726.1 ± 2.2
323.15 K, 30000 kPa | 1063.3 ± 0.8 | 1190.5 ± 0.8 | 1303.2 ± 0.9 | 1404.3 ± 1 | 1492.5 ± 1.1 | – | – | – | – | –
323.15 K, 40000 kPa | 1077.2 ± 0.8 | 1206.1 ± 0.9 | 1319.9 ± 1 | 1421.9 ± 1.1 | 1510.7 ± 1.2 | 952.5 ± 2.2 | 901 ± 2.2 | 862.9 ± 2.2 | 846.1 ± 2.2 | 822.8 ± 2.2
323.15 K, 50000 kPa | 1089.7 ± 0.8 | 1220 ± 0.9 | 1334.9 ± 1.1 | 1437.6 ± 1.3 | 1527.2 ± 1.4 | – | – | – | – | –
323.15 K, 60000 kPa | 1101 ± 0.8 | 1232.6 ± 1 | 1348.5 ± 1.2 | 1452 ± 1.4 | 1542.2 ± 1.7 | 1043.6 ± 2.2 | 987.7 ± 2.2 | 946.9 ± 2.2 | 927.8 ± 2.2 | 902.5 ± 2.1
323.15 K, 70000 kPa | 1111.5 ± 0.9 | 1244.2 ± 1.1 | 1361 ± 1.3 | 1465.1 ± 1.6 | 1555.9 ± 1.9 | – | – | – | – | –
323.15 K, 80000 kPa | 1121.1 ± 0.9 | 1255 ± 1.2 | 1372.5 ± 1.5 | 1477.3 ± 1.9 | 1568.7 ± 2.2 | 1123.2 ± 2.2 | 1063 ± 2.2 | 1019.6 ± 2.2 | 998.6 ± 2.2 | 971.8 ± 2.2
323.15 K, 90000 kPa | 1130.2 ± 0.9 | 1265.1 ± 1.3 | 1383.4 ± 1.7 | 1488.8 ± 2.1 | 1580.6 ± 2.4 | – | – | – | – | –
323.15 K, 100000 kPa | 1138.8 ± 1 | 1274.5 ± 1.4 | 1393.7 ± 1.9 | 1499.6 ± 2.3 | 1591.9 ± 2.7 | 1193.8 ± 2.2 | 1129.2 ± 2.2 | 1084.4 ± 2.2 | 1061.6 ± 2.2 | 1033.7 ± 2.2
323.15 K, 110000 kPa | 1146.9 ± 1 | 1283.5 ± 1.5 | 1403.2 ± 2.1 | 1509.8 ± 2.6 | 1602.5 ± 3 | – | – | – | – | –
323.15 K, 120000 kPa | 1154.5 ± 1.1 | 1291.9 ± 1.7 | 1412.4 ± 2.3 | 1519.5 ± 2.8 | 1612.5 ± 3.3 | – | – | – | – | –
323.15 K, 130000 kPa | 1161.7 ± 1.2 | 1299.9 ± 1.8 | 1421.1 ± 2.5 | 1528.7 ± 3 | 1622.1 ± 3.6 | – | – | – | – | –
323.15 K, 140000 kPa | 1168.7 ± 1.2 | 1307.7 ± 2 | 1429.4 ± 2.7 | 1537.4 ± 3.3 | 1631.3 ± 3.9 | – | – | – | – | –
333.15 K, 100 kPa | 990.5 ± 0.8 | 1109.5 ± 0.8 | 1216.5 ± 0.8 | 1312.3 ± 0.8 | 1397.5 ± 0.8 | 659.8 ± 2.2 | 617.9 ± 2.2 | 593.4 ± 2.2 | 579.9 ± 2.2 | 568.6 ± 2.2
333.15 K, 10000 kPa | 1014.9 ± 0.8 | 1137 ± 0.8 | 1245.9 ± 0.8 | 1343.3 ± 0.8 | 1429.3 ± 0.8 | – | – | – | – | –
333.15 K, 20000 kPa | 1034.7 ± 0.8 | 1159.2 ± 0.8 | 1269.8 ± 0.8 | 1368.5 ± 0.9 | 1455.3 ± 0.9 | 816 ± 2.2 | 769.7 ± 2.2 | 737.4 ± 2.2 | 720.8 ± 2.2 | 703.1 ± 2.2
333.15 K, 30000 kPa | 1051.5 ± 0.8 | 1177.9 ± 0.8 | 1290 ± 0.9 | 1389.8 ± 1 | 1477.3 ± 1.1 | – | – | – | – | –
333.15 K, 40000 kPa | 1066.2 ± 0.8 | 1194.2 ± 0.9 | 1307.5 ± 1 | 1408.4 ± 1.1 | 1496.6 ± 1.2 | 930.9 ± 2.2 | 878.9 ± 2.2 | 842 ± 2.2 | 823.8 ± 2.2 | 802.8 ± 2.1
333.15 K, 50000 kPa | 1079.3 ± 0.8 | 1208.8 ± 0.9 | 1323.2 ± 1.1 | 1424.9 ± 1.2 | 1513.8 ± 1.4 | – | – | – | – | –
333.15 K, 60000 kPa | 1091.1 ± 0.8 | 1222 ± 1 | 1337.3 ± 1.2 | 1439.9 ± 1.4 | 1529.4 ± 1.6 | 1024.9 ± 2.2 | 968.2 ± 2.2 | 927.8 ± 2.2 | 907.5 ± 2.2 | 884.3 ± 2.1
333.15 K, 70000 kPa | 1101.9 ± 0.8 | 1234 ± 1.1 | 1350.3 ± 1.3 | 1453.7 ± 1.6 | 1543.7 ± 1.9 | – | – | – | – | –
333.15 K, 80000 kPa | 1112 ± 0.9 | 1244.9 ± 1.1 | 1362.3 ± 1.5 | 1466.4 ± 1.8 | 1556.9 ± 2.1 | 1106.8 ± 2.2 | 1044.5 ± 2.2 | 1001.6 ± 2.2 | 980 ± 2.2 | 954.4 ± 2.1
333.15 K, 90000 kPa | 1121.4 ± 0.9 | 1255.4 ± 1.2 | 1373.5 ± 1.6 | 1478.4 ± 2 | 1569.3 ± 2.4 | – | – | – | – | –
333.15 K, 100000 kPa | 1130.3 ± 1 | 1265.1 ± 1.4 | 1384 ± 1.8 | 1489.4 ± 2.3 | – | – | 1111.7 ± 2.2 | 1067.2 ± 2.2 | 1043.9 ± 2.2 | 1016.8 ± 2.1
